{"source": "patent US7507739B2", "about": "“6-[(substituted)phenyl]triazolopyrimidines as anticancer agents” (Wyeth, priority 2003, dated 2009)", "key": {"[1]": {"system": "U87-MG Human Glioblastoma", "test": "Human tumor xenograft test, U87-MG", "assay_type": "in vivo, athymic mice", "settings": "for T/C on day 0 / T/C on day 3 / T/C on day 7 / T/C on day 10 / T/C on day 13 / T/C on day 17: U87-MG, days 1, 5, 9", "method": "(§1) The ability of compounds of this invention to inhibit tumor growth in animals is studied in the athymic mouse xenograft standard pharmacological test. Female nu/nu mice in an outbred albino background are obtained from Charles River Laboratories (Wilmington, Mass.). Animals are injected subcutaneously on the flank with the desired tumor cell suspension. Several days later, mice with tumors of approximately 150 mm^3 are selected from those injected (staged) and randomly distributed into groups of 5-10. The day of staging is called day 0. Compounds of the invention, usually formulated in saline (exceptions are noted in tables), are administered to animals by intravenous injection or oral gavage on various schedules starting on day 0 or 1, as noted in the tables. The control group in each experiment is dosed with vehicle on the same schedule. Tumor size is measured every 3-7 days with calipers in two orthogonal dimensions, and tumor volume is calculated from the formula volume=[(length×width^2)/2].\n(§2) Tumor/Control (T/C) is obtained by dividing the mean tumor volume of the treated group by the mean tumor volume of the control group on each measurement day. A treatment dose is defined as active if it produced a statistically significant T/C of 0.50 or less. A p value≦0.05, determined by one-side Student's t-test, is required for statistical significance. A treatment dose is defined as toxic if more than 10% of the animals died from a compound-related toxicity."}, "[2]": {"system": "DLD1 Human Colon Carcinoma", "test": "Human tumor xenograft test, DLD1", "assay_type": "in vivo", "settings": "days 1, 5, 9, 13", "method": "as §1, §2"}, "MAP-rich tubulin": {"system": "MAP-rich tubulin", "test": "Tubulin polymerization test with MAP-rich tubulin", "assay_type": "biochemical, bovine", "settings": "0.3 μM compound, 20 min, fold enhancement over control", "method_in_brief": "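Bovine brain MAP-rich tubulin (1.3 mg/mL) in PEM buffer pH 6.9 with 1 mM GTP, compounds at 0.3 μM final (0.3% DMSO), 24° for 60 min. Turbidity read at 340 nm each minute, baseline-subtracted; mean A340 at 20 min divided by solvent control gives fold enhancement.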"}, "[3]": {"system": "A549 Human Non-Small Cell Lung Carcinoma", "test": "Human tumor xenograft test, A549", "assay_type": "in vivo, athymic mice", "settings": "days 1, 5, 9, 13, 17, 21, 25, 29", "method": "as §1, §2"}}, "note": "Marks after values point to notes of the source that are not given here.", "data": [{"smiles": "CNCCCOc1cc(F)c(-c2c(Cl)nc3ncnn3c2NCC(F)(F)F)c(F)c1.Cl", "note": "[Example 3a, 5-Chloro-6-{2,6-difluoro-4-[3-(methylamino)propoxy]phenyl}-N-(2,2,2-trifluoroethyl)[1,2,4]triazolo[1,5-a]pyrimidin-7-amine hydrogen chloride Salt]", "values": [{"measurement": "T/C on day 0", "setting": "[1]; 10 mg/kg PO", "result": 0.99}, {"measurement": "T/C on day 3", "setting": "[1]; 10 mg/kg PO", "result": 1.08}, {"measurement": "T/C on day 7", "setting": "[1]; 10 mg/kg PO", "result": 0.85}, {"measurement": "T/C on day 10", "setting": "[1]; 10 mg/kg PO", "result": "0.69**"}, {"measurement": "T/C on day 13", "setting": "[1]; 10 mg/kg PO", "result": "0.52**"}, {"measurement": "T/C on day 17", "setting": "[1]; 10 mg/kg PO", "result": "0.51**"}, {"measurement": "T/C on day 0", "setting": "[1]; 20 mg/kg PO", "result": 1.01}, {"measurement": "T/C on day 3", "setting": "[1]; 20 mg/kg PO", "result": 0.90}, {"measurement": "T/C on day 7", "setting": "[1]; 20 mg/kg PO", "result": 0.73}, {"measurement": "T/C on day 10", "setting": "[1]; 20 mg/kg PO", "result": "0.63**"}, {"measurement": "T/C on day 13", "setting": "[1]; 20 mg/kg PO", "result": "0.42**"}, {"measurement": "T/C on day 17", "setting": "[1]; 20 mg/kg PO", "result": "0.39**"}, {"measurement": "T/C on day 0", "setting": "[1]; 40 mg/kg PO", "result": 1.02}, {"measurement": "T/C on day 3", "setting": "[1]; 40 mg/kg PO", "result": 0.73}, {"measurement": "T/C on day 7", "setting": "[1]; 40 mg/kg PO", "result": "0.65**"}, {"measurement": "T/C on day 10", "setting": "[1]; 40 mg/kg PO", "result": "0.48**"}, {"measurement": "T/C on day 13", "setting": "[1]; 40 mg/kg PO", "result": "0.30**"}, {"measurement": "T/C on day 17", "setting": "[1]; 40 mg/kg PO", "result": "0.20**"}, {"measurement": "tumor growth inhibition (activity call)", "setting": "[1]; U-87 MG, oral dosing, 40, 20, and 10 mg/kg", "result": "active"}, {"measurement": "T/C on day 0", "setting": "[2]; DLD1, 10 mg/kg IV", "result": 1.00}, {"measurement": "T/C on day 7", "setting": "[2]; DLD1, 10 mg/kg IV", "result": 0.77}, {"measurement": "T/C on day 14", "setting": "[2]; DLD1, 10 mg/kg IV", "result": 0.75}, {"measurement": "T/C on day 21", "setting": "[2]; DLD1, 10 mg/kg IV", "result": 0.84}, {"measurement": "T/C on day 0", "setting": "[2]; DLD1, 20 mg/kg IV", "result": 1.00}, {"measurement": "T/C on day 7", "setting": "[2]; DLD1, 20 mg/kg IV", "result": 0.55}, {"measurement": "T/C on day 14", "setting": "[2]; DLD1, 20 mg/kg IV", "result": 0.56}, {"measurement": "T/C on day 21", "setting": "[2]; DLD1, 20 mg/kg IV", "result": 0.73}, {"measurement": "T/C on day 0", "setting": "[2]; DLD1, 25 mg/kg IV", "result": 1.00}, {"measurement": "T/C on day 7", "setting": "[2]; DLD1, 25 mg/kg IV", "result": 0.59}, {"measurement": "T/C on day 14", "setting": "[2]; DLD1, 25 mg/kg IV", "result": 0.46}, {"measurement": "T/C on day 21", "setting": "[2]; DLD1, 25 mg/kg IV", "result": 0.60}]}, {"smiles": "CC[C@]1(O)C[C@H]2CN(CCc3c([nH]c4ccccc34)[C@@](C(=O)OC)(c3cc4c(cc3OC)N(C=O)[C@H]3[C@@](O)(C(=O)OC)[C@H](OC(C)=O)[C@]5(CC)C=CCN6CC[C@]43[C@@H]65)C2)C1", "note": "[Vincristine, reference compound]", "values": [{"measurement": "A340 Compound/A340 Control", "setting": "MAP-rich tubulin", "result": 0}]}, {"smiles": "CC(=O)O[C@H]1C(=O)[C@@]2(C)[C@H]([C@H](OC(=O)c3ccccc3)[C@]3(O)C[C@H](OC(=O)[C@H](O)[C@@H](NC(=O)c4ccccc4)c4ccccc4)C(C)=C1C3(C)C)[C@]1(OC(C)=O)CO[C@@H]1C[C@@H]2O", "note": "[Paclitaxel, reference compound]", "values": [{"measurement": "A340 Compound/A340 Control", "setting": "MAP-rich tubulin", "result": 8.5}]}, {"smiles": "CN(C)CCCOc1cc(F)c(-c2c(Cl)nc3ncnn3c2NCC(F)(F)F)c(F)c1.Cl", "note": "[Example 4a, 5-Chloro-6-{4-[3-(dimethylamino)propoxy]-2,6-difluorophenyl}-N-(2,2,2-trifluoroethyl)[1,2,4]triazolo[1,5-a]pyrimidin-7-amine Hydrogen chloride Salt]", "values": [{"measurement": "T/C on day 0", "setting": "[3]; A549, 10 mg/kg IV", "result": 0.98}, {"measurement": "T/C on day 7", "setting": "[3]; A549, 10 mg/kg IV", "result": 0.81}, {"measurement": "T/C on day 14", "setting": "[3]; A549, 10 mg/kg IV", "result": 0.74}, {"measurement": "T/C on day 21", "setting": "[3]; A549, 10 mg/kg IV", "result": 0.68}, {"measurement": "T/C on day 27", "setting": "[3]; A549, 10 mg/kg IV", "result": 0.80}, {"measurement": "T/C on day 35", "setting": "[3]; A549, 10 mg/kg IV", "result": 0.79}, {"measurement": "T/C on day 0", "setting": "[3]; A549, 20 mg/kg IV", "result": 0.99}, {"measurement": "T/C on day 7", "setting": "[3]; A549, 20 mg/kg IV", "result": 0.86}, {"measurement": "T/C on day 14", "setting": "[3]; A549, 20 mg/kg IV", "result": 0.80}, {"measurement": "T/C on day 21", "setting": "[3]; A549, 20 mg/kg IV", "result": 0.72}, {"measurement": "T/C on day 27", "setting": "[3]; A549, 20 mg/kg IV", "result": 0.78}, {"measurement": "T/C on day 35", "setting": "[3]; A549, 20 mg/kg IV", "result": 0.77}, {"measurement": "T/C on day 0", "setting": "[3]; A549, 40 mg/kg IV", "result": 0.97}, {"measurement": "T/C on day 7", "setting": "[3]; A549, 40 mg/kg IV", "result": 0.71}, {"measurement": "T/C on day 14", "setting": "[3]; A549, 40 mg/kg IV", "result": "0.53**"}, {"measurement": "T/C on day 21", "setting": "[3]; A549, 40 mg/kg IV", "result": "0.46**"}, {"measurement": "T/C on day 27", "setting": "[3]; A549, 40 mg/kg IV", "result": "0.52**"}, {"measurement": "T/C on day 35", "setting": "[3]; A549, 40 mg/kg IV", "result": "0.47**"}, {"measurement": "A340 Compound/A340 Control", "setting": "MAP-rich tubulin", "result": 8.1}, {"measurement": "T/C on day 0", "setting": "[2]; DLD1, 10 mg/kg IV", "result": 1.00}, {"measurement": "T/C on day 7", "setting": "[2]; DLD1, 10 mg/kg IV", "result": 0.56}, {"measurement": "T/C on day 14", "setting": "[2]; DLD1, 10 mg/kg IV", "result": 0.68}, {"measurement": "T/C on day 21", "setting": "[2]; DLD1, 10 mg/kg IV", "result": 0.74}, {"measurement": "T/C on day 0", "setting": "[2]; DLD1, 20 mg/kg IV", "result": 1.00}, {"measurement": "T/C on day 7", "setting": "[2]; DLD1, 20 mg/kg IV", "result": 0.55}, {"measurement": "T/C on day 14", "setting": "[2]; DLD1, 20 mg/kg IV", "result": 0.44}, {"measurement": "T/C on day 21", "setting": "[2]; DLD1, 20 mg/kg IV", "result": 0.61}, {"measurement": "T/C on day 0", "setting": "[2]; DLD1, 25 mg/kg IV", "result": 1.00}, {"measurement": "T/C on day 7", "setting": "[2]; DLD1, 25 mg/kg IV", "result": 0.63}, {"measurement": "T/C on day 14", "setting": "[2]; DLD1, 25 mg/kg IV", "result": 0.49}, {"measurement": "T/C on day 21", "setting": "[2]; DLD1, 25 mg/kg IV", "result": 0.48}]}]}
